Legend:
[1] = test system: Puccinia recondita—PUCCRT; test: Brown rust of wheat, 1-day protectant whole plant test; assay type: in vivo; conditions: 100 ppm spray, 1-day protectant (1DP), wheat cultivar Monon
[2] = test system: Phytophthora infestans—PHYTIN; assay type: in vivo; conditions: 100 ppm spray, 1-day protectant (1DP), tomatoes cultivar Rutgers
[3] = test system: Erysiphe graminis—ERYSGT; test: Powdery Mildew of Wheat, 1-day protectant whole plant test; assay type: in vivo; conditions: 100 ppm spray, 1-day protectant (1DP), wheat cultivar Monon
[4] = test system: Leptosphaeria nodorum—LEPTNO; test: Glume blotch of wheat, 1-day protectant whole plant test; assay type: in vivo; conditions: 100 ppm spray, 1-day protectant (1DP), wheat cultivar Monon

Compound	PUCCRT percent control of the plant disease compared with untreated, inoculated plants [1] [%]	PHYTIN percent control of the plant disease compared with untreated, inoculated plants [2] [%]	melting point [°C]	ERYSGT percent control of the plant disease compared with untreated, inoculated plants [3] [%]	LEPTNO percent control of the plant disease compared with untreated, inoculated plants [4] [%]
CNC(=O)C(=NOC)c1cccc(Cl)c1COc1ccc(Sc2ccc(C)cc2)cn1 [Compound 4, 2-Methoxyimino-N-methyl-{3-chloro-2-[5-(4-methylphenyl)thio-2-pyridyloxy]methylphenyl}acetamide]	99	89	100 to 102	67	98
CNC(=O)C(=NOC)c1cccc(Cl)c1COc1ccc(Sc2ccc(Cl)cc2)cn1 [Compound 5, 2-Methoxyimino-N-methyl-{3-chloro-2-[5-(4-chlorophenyl)thio-2-pyridyloxy]methylphenyl}acetamide]	100	99	116 to 118	85	98
CNC(=O)C(=NOC)c1ccccc1COc1ncc(Sc2ccccc2)cc1Cl [Compound 3, 2-Methoxyimino-N-methyl-[2-(3-chloro-5-phenylthio-2-pyridyloxy)methylphenyl]acetamide]	98	90	84 to 86	85	90
